Results published in US20220305031A1, “METHODS FOR REDUCING TUMOR PROGRESSION AND FIBROSIS AND INCREASING ADAPTIVE IMMUNITY IN MALIGNANCIES” (GEORGETOWN UNIVERSITY, priority 2019, published 2022).

Key:
Assay type in all cases: in vivo
NeuT/ATTAC mice [1] = assay: Tumor development and multiplicity in AP-treated NeuT/ATTAC mice on DMHCA diet; settings: diet with 0.05% DMHCA (~100 mg/kg/day)
Text: The derivation and characteristics of MMTV-PPARd mice was reported in Yuan et al., “PPARdelta Induces Estrogen Receptor-Positive Mammary Neoplasia Through an Inflammatory and Metabolic Phenotype Linked to mTOR Activation,” Cancer Res. 73(14):4349-4361 (2013), which is hereby incorporated by reference in its entirety. […] FAT-ATTAC mice on a C57BL/6 background (Pajvani et al., “Fat Apoptosis Through Targeted Activation of Caspase 8: A New Mouse Model of Inducible and Reversible Lipoatrophy,” Nat. Med. 11(7):797-803 (2005); Landskroner-Eiger et al., “Morphogenesis of the Developing Mammary Gland. Stage-Dependent Impact of Adipocytes,” Dev. Biol. 344(2):968-978 (2010), each of which is hereby incorporated by reference in its entirety) were crossed into the FVB strain for several generations. Derivation of NeuT/ATTAC mice was reported in Yuan et al., “MMTV-NeuT/ATTAC Mice: A New Model for Studying the Stromal Tumor Microenvironment,” Oncotarget. 9(8):8042-8053 (2018), which is hereby incorporated by reference in its entirety. All animals were fed LabDiet 5303 and monitored for the NeuT, PPARd, and/or FKBPv-caspase 8 transgenes by genotyping.
(§1) Fibrosis was induced in mice at 6 w.o.a. by weekly i.p. injections of 0.4 mg/kg AP dissolved in vehicle (4% ethanol, 10% PEG-400, and 1.75% Tween-20 in water). Mice were maintained on LabDiet 5053 chow supplemented with 0.05% DMHCA (100 mg/kg) beginning at 8 w.o.a. Control mice received the standard diet.
Statistical significance was evaluated using the Mantel-Cox log-rank test for survival analysis and Prism GraphPad software or the two-tailed Student's t test to evaluate differences between means at a significance of P<0.05.
A study was designed to evaluate whether DMHCA treatment could abrogate tumor development in NeuT/ATTAC mice treated with AP.

NeuT/ATTAC mice [2] = assay: FACS analysis of immune cell subsets in tumor infiltrates and spleen
Procedure: as §1
To assess whether DMHCA treatment could reduce immune tolerance in NeuT/ATTAC mice, a model that is highly resistant to PD-1 immunotherapy, spleen and tumor immune infiltrates were analyzed by FACS (FIGS. 6A-6C).

[3] = tested on: tumors from NeuT/ATTAC mice; assay: FLIM and SHG microscopy of tumor sections; settings: DMHCA-treated tumor vs control tumor
Text: SHG imaging using a multiphoton microscope equipped with a Deep Imaging Via Emission Recovery (DIVER) detector (Crosignani et al., “Deep Tissue Fluorescence Imaging and in Vivo Biological Applications,” J. Biomed. Opt. 17(11):116023 (2012), which is hereby incorporated by reference in its entirety) can distinguish collagen accumulation in the early stages of fibrosis unlike standard histological analysis (Dvornikov & Gratton, “Imaging in Turbid Media: A Transmission Detector Gives 2-3 Order of Magnitude Enhanced Sensitivity Compared to Epi-Detection Schemes,” Biomed. Opt. Express 7:3747-755 (2016); Ranjit et al., “Label-Free Fluorescence Lifetime and Second Harmonic Generation Imaging Microscopy Improves Quantification of Experimental Renal Fibrosis,” Kidney Int. 90:1123-1128 (2016), each of which is hereby incorporated by reference in its entirety). DIVER, by virtue of detection in the direction of light propagation is especially suitable for SHG detection and a combination of SHG and FLIM enables spatial mapping of collagen I and III, which is important for fibrosis. Additionally, this type of imaging is applicable to unstained tissues, which eliminates the uncertainty from issues associated with labeling efficiency. Moreover, the same tissue can be used for other purposes after imaging is complete. […]

[4] = tested on: tumors from NeuT/ATTAC mice; assay: Immunohistochemistry of FFPE tumor sections
Procedure: as §1
Mammary tissue was excised and FFPE sections were prepared (Yuan et al., “MMTV-NeuT/ATTAC Mice: A New Model for Studying the Stromal Tumor Microenvironment,” Oncotarget. 9(8):8042-53 (2018); Yuan et al., “PPARdelta Induces Estrogen Receptor-Positive Mammary Neoplasia Through an Inflammatory and Metabolic Phenotype linked to mTOR Activation,” Cancer Res. 73(14):4349-4361 (2013); Yin et al., “Peroxisome Proliferator-Activated Receptor Delta and Gamma Agonists Differentially Alter Tumor Differentiation and Progression During Mammary Carcinogenesis,” Cancer Res. 65:3950-3957 (2005); Yin et al., “Inhibition of Peroxisome Proliferator-Activated Receptor Gamma Increases Estrogen Receptor-Dependent Tumor Specification,” Cancer Res. 69(2):687-694 (2009), each of which is hereby incorporated by reference in its entirety). Primary antibodies: PD-L1 (1:200, 17952-1-AP, Proteintech), SMA (1:100, sc130617, Santa Cruz), Ki67 (1:50, CRM325, Biocare), CD31 (1:100, ab56299, Abcam), CXCL1 (1:120, sc-1374, Santa Cruz), F4/80 (1:30, 14-4801-85, eBioscience), Foxp3 (1:50, 14-5773-82, e Bioscience), CD8a (1:40, 14-0808-82, eBioscience). Collagen was stained with Picrosirius Red stain (Yuan et al., “MMTV-NeuT/ATTAC Mice: A New Model for Studying the Stromal Tumor Microenvironment,” Oncotarget. 9(8):8042-53 (2018), which is hereby incorporated by reference in its entirety).

[5] = NeuT/ATTAC mice, DMHCA from two months of age

SMILES: C[C@H](CCC(=O)N(C)C)[C@H]1CC[C@H]2[C@@H]3CC=C4C[C@@H](O)CC[C@]4(C)[C@H]3CC[C@]12C [DMHCA, dimethyl-3-beta-hydroxy-cholenamide]
- tumor development (NeuT/ATTAC mice [1]; NeuT/ATTAC mice treated with AP, FIG. 5A): reduction in tumor development
- decrease in tumor multiplicity (NeuT/ATTAC mice [1]; NeuT/ATTAC mice treated with AP, FIG. 5B): 10 fold
- toxicity of dietary dose (NeuT/ATTAC mice [1]): nontoxic
- PD1+/Foxp3+ CD4+ T cells (NeuT/ATTAC mice [2]; [5]): increase
- CD4+ effector T cells (NeuT/ATTAC mice [2]; spleen, vs control): enhanced
- CD8+ effector T cells (NeuT/ATTAC mice [2]; spleen, vs control): enhanced
- G-MDSC (NeuT/ATTAC mice [2]; spleen, vs control): reduced
- Treg cells (NeuT/ATTAC mice [2]; spleen, vs control): markedly reduced
- CD4+ effector T cells (NeuT/ATTAC mice [2]; tumor infiltrates, vs control): increased
- CD8+ effector T cells (NeuT/ATTAC mice [2]; tumor infiltrates, vs control): increased
- G-MDSC (NeuT/ATTAC mice [2]; tumor infiltrates, vs control): reduced
- M-MDSC (NeuT/ATTAC mice [2]; tumor infiltrates, vs control): reduced
- Treg (NeuT/ATTAC mice [2]; tumor infiltrates, vs control): reduced
- collagen I & collagen III detected by FLIM ([3]; FIG. 8C-8D): little collagen
- collagen I by SHG microscopy ([3]; FIG. 8E-8G): markedly reduced
- CXCL1 expression ([4]; IHC of tumors, FIG. 7): reduced CXCL1 expression
- fibroblast activation protein expression [4, 5]: reduced
- smooth muscle actin expression [4, 5]: reduced
